For one test, the target named is Fibroblast growth factor receptor 2 (Homo sapiens, UniProt P21802).
Fibroblast growth factor receptor 2, sequence (P21802 whole entry): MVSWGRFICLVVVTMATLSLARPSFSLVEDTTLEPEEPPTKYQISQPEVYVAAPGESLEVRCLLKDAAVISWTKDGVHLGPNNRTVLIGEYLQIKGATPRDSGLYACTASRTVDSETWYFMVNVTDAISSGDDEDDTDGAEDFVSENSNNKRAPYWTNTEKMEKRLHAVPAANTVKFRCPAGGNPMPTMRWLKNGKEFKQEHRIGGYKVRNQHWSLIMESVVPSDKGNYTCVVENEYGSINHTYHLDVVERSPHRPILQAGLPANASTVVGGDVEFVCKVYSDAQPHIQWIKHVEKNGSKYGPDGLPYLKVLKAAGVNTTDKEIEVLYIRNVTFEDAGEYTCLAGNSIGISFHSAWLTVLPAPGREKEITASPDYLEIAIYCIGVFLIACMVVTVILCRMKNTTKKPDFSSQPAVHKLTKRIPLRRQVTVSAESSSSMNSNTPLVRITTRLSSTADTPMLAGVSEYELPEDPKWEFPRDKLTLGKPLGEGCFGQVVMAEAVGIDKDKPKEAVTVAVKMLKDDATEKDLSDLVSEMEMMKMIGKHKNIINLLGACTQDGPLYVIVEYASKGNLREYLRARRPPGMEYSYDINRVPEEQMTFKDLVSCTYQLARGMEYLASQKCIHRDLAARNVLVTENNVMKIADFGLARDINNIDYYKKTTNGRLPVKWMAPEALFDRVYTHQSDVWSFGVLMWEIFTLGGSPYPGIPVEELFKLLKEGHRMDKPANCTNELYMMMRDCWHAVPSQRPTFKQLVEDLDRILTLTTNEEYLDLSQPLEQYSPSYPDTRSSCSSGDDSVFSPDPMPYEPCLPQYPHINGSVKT
Experiment: not given
Settings: not given
Broadly, the IC50 is the concentration needed to halve the response being measured. A low value points to greater potency in that assay. For `C[C@@H](Oc1ccc2[nH]nc(/C=C/c3cnn(CCN)c3)c2c1)c1c(Cl)cncc1Cl`, half-maximal inhibition (IC50) was put at 2.09 nM.

The next test concerns KATO III stomach cancer cell line. Nature of the test: cells. The conditions noted are these: Homo sapiens, 72 h.
Description: Antiproliferative activity against FGFR2 amplified human KATO III cells measured after 3 days by MTT assay
`C[C@@H](Oc1ccc2[nH]nc(/C=C/c3cnn(CCNC(=O)CCCNc4ccc5c(c4)C(=O)N(C4CCC(=O)NC4=O)C5=O)c3)c2c1)c1c(Cl)cncc1Cl` (stereo not given in full) displayed an IC50 of 10.4 nM.

`C[C@@H](Oc1ccc2[nH]nc(/C=C/c3cnn(CCNc4ccc5c(c4)C(=O)N(C4CCC(=O)NC4=O)C5=O)c3)c2c1)c1c(Cl)cncc1Cl` (stereo not given in full) gave an IC50 of 7.29 nM. `C[C@@H](Oc1ccc2[nH]nc(/C=C/c3cnn(CCNC(=O)CCCNc4cccc5c4C(=O)N(C4CCC(=O)NC4=O)C5=O)c3)c2c1)c1c(Cl)cncc1Cl` (stereo not given in full): the IC50 stood at 8.08 nM. In turn, `Cc1ncsc1-c1ccc(CNC(=O)[C@@H]2C[C@@H](O)CN2C(=O)[C@@H](NC(=O)CCCCC(=O)NCCn2cc(/C=C/c3n[nH]c4ccc(O[C@H](C)c5c(Cl)cncc5Cl)cc34)cn2)C(C)(C)C)cc1` gave an IC50 greater than 50 nM. Same read-out and setting: in the case of `C[C@@H](Oc1ccc2[nH]nc(/C=C/c3cnn(CCNC(=O)/C=C/C(=O)c4ccccc4)c3)c2c1)c1c(Cl)cncc1Cl` it was 15.4 nM.

`C[C@@H](Oc1ccc2[nH]nc(/C=C/c3cnn(CCNC(=O)/C=C/c4cccc(C(F)(F)F)c4)c3)c2c1)c1c(Cl)cncc1Cl` showed an IC50 of 39.2 nM. This IC50 is about 2.5-fold higher than that of the compound before. Same read-out and setting: as for `C[C@@H](Oc1ccc2[nH]nc(/C=C/c3cnn(CCNC(=O)CCCCNc4ccc5c(c4)C(=O)N(C4CCC(=O)NC4=O)C5=O)c3)c2c1)c1c(Cl)cncc1Cl` (stereo not given in full), the figure is 20 nM; as for `C[C@@H](Oc1ccc2[nH]nc(/C=C/c3cnn(CCNC(=O)/C=C/c4ccc(C(F)(F)F)cc4)c3)c2c1)c1c(Cl)cncc1Cl`, 41.8 nM. The compound `COc1ccc(C(=O)/C=C/C(=O)NCCn2cc(/C=C/c3n[nH]c4ccc(O[C@H](C)c5c(Cl)cncc5Cl)cc34)cn2)cc1` returned an IC50 of 10.1 nM. Take `C[C@@H](Oc1ccc2[nH]nc(/C=C/c3cnn(CCNC(=O)CNc4cccc5c4C(=O)N(C4CCC(=O)NC4=O)C5=O)c3)c2c1)c1c(Cl)cncc1Cl` (stereo not given in full): the midpoint of inhibition, the IC50, lay at 22.4 nM. On to `C[C@@H](Oc1ccc2[nH]nc(/C=C/c3cnn(CCNC(=O)/C=C/C(=O)c4ccc(F)cc4)c3)c2c1)c1c(Cl)cncc1Cl`, for which half-maximal inhibition (IC50) was put at 12.1 nM. Compared with the last compound, the IC50 is about 1.9-fold lower.

As to `Cc1ncsc1-c1ccc(CNC(=O)[C@@H]2C[C@@H](O)CN2C(=O)[C@@H](NC(=O)CCCC(=O)NCCn2cc(/C=C/c3n[nH]c4ccc(O[C@H](C)c5c(Cl)cncc5Cl)cc34)cn2)C(C)(C)C)cc1`, the IC50 is greater than 50 nM. Same read-out and setting: as for `C[C@@H](Oc1ccc2[nH]nc(/C=C/c3cnn(CCNC(=O)CCNc4ccc5c(c4)C(=O)N(C4CCC(=O)NC4=O)C5=O)c3)c2c1)c1c(Cl)cncc1Cl` (stereo not given in full), the figure is 14.8 nM; as for `C[C@@H](Oc1ccc2[nH]nc(/C=C/c3cnn(CCNC(=O)CCCCNc4cccc5c4C(=O)N(C4CCC(=O)NC4=O)C5=O)c3)c2c1)c1c(Cl)cncc1Cl` (stereo not given in full), 17.5 nM. On to `C[C@@H](Oc1ccc2[nH]nc(/C=C/c3cnn(CCNc4cccc5c4C(=O)N(C4CCC(=O)NC4=O)C5=O)c3)c2c1)c1c(Cl)cncc1Cl` (stereo not given in full), for which half-maximal inhibition (IC50) was put at 6.83 nM.

`Cc1ncsc1-c1ccc(CNC(=O)[C@@H]2C[C@@H](O)CN2C(=O)[C@@H](NC(=O)CCC(=O)NCn2cc(/C=C/c3n[nH]c4ccc(O[C@H](C)c5c(Cl)cncc5Cl)cc34)cn2)C(C)(C)C)cc1` returned an IC50 greater than 50 nM. `C[C@@H](Oc1ccc2[nH]nc(/C=C/c3cnn(CCNC(=O)/C=C/c4cc(C(F)(F)F)cc(C(F)(F)F)c4)c3)c2c1)c1c(Cl)cncc1Cl`: the IC50 was greater than 50 nM. In the case of `Cc1ncsc1-c1ccc(CNC(=O)[C@@H]2C[C@@H](O)CN2C(=O)[C@@H](NC(=O)CCC(=O)NCCn2cc(/C=C/c3n[nH]c4ccc(O[C@H](C)c5c(Cl)cncc5Cl)cc34)cn2)C(C)(C)C)cc1`, the IC50 was greater than 50 nM. Consider `C[C@@H](Oc1ccc2[nH]nc(/C=C/c3cnn(CCNC(=O)CCCCCNc4cccc5c4C(=O)N(C4CCC(=O)NC4=O)C5=O)c3)c2c1)c1c(Cl)cncc1Cl` (stereo not given in full), for which the midpoint of inhibition, the IC50, lay at 4.93 nM. Take `C[C@@H](Oc1ccc2[nH]nc(/C=C/c3cnn(CCNC(=O)/C=C/C(=O)c4ccc(Cl)cc4)c3)c2c1)c1c(Cl)cncc1Cl`: the IC50 was greater than 50 nM. The same measure, in the same setting: in the case of `Cc1ncsc1-c1ccc(CNC(=O)[C@@H]2C[C@@H](O)CN2C(=O)[C@@H](NC(=O)CCCCCC(=O)NCCn2cc(/C=C/c3n[nH]c4ccc(O[C@H](C)c5c(Cl)cncc5Cl)cc34)cn2)C(C)(C)C)cc1` it was greater than 50 nM; in that of `C[C@@H](Oc1ccc2[nH]nc(/C=C/c3cnn(CCNC(=O)CCNc4cccc5c4C(=O)N(C4CCC(=O)NC4=O)C5=O)c3)c2c1)c1c(Cl)cncc1Cl` (stereo not given in full), 4.16 nM; in that of `C[C@@H](Oc1ccc2[nH]nc(/C=C/c3cnn(CCNC(=O)CNc4ccc5c(c4)C(=O)N(C4CCC(=O)NC4=O)C5=O)c3)c2c1)c1c(Cl)cncc1Cl` (stereo not given in full), 47 nM. The same measure, in the same setting: in the case of `C[C@@H](Oc1ccc2[nH]nc(/C=C/c3cnn(CCNC(=O)/C=C/C(=O)c4ccc(Br)cc4)c3)c2c1)c1c(Cl)cncc1Cl` it was 46.6 nM.
